Key:
Assay in all cases: relative viability (nuclei count vs DMSO), 5 days (fraction); higher = more cells survive
YM155 + Foretinib = compound: COCC[n+]1c2c(n(Cc3cnccn3)c1C)C(=O)c1ccccc1C2=O [YM155] + COc1cc2c(Oc3ccc(NC(=O)C4(C(=O)Nc5ccc(F)cc5)CC4)cc3F)ccnc2cc1OCCCN1CCOCC1 [Foretinib] (partner 0.25 µM)
Summary of the method: (§1)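 One day after seeding in 1536-well plates, lung cancer cell lines were dosed by pin tool. Dosing was either single-drug or a fixed anchor-drug dose plus five library-drug doses (not always all listed) in √10 steps. After 5 days, nuclei were stained in one fix-and-stain step and counted on 4× images, and relative viability is the nuclei count of treated wells over that of vehicle wells, given as the median of duplicate plates.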

Quizartinib + AZD7762 = compound: CC(C)(C)c1cc(NC(=O)Nc2ccc(-c3cn4c(n3)sc3cc(OCCN5CCOCC5)ccc34)cc2)no1 [Quizartinib] + NC(=O)Nc1cc(-c2cccc(F)c2)sc1C(=O)N[C@H]1CCCNC1 [AZD7762] (partner 0.2 µM)
Summary of the method: as §1

YM155 + Crizotinib = compound: COCC[n+]1c2c(n(Cc3cnccn3)c1C)C(=O)c1ccccc1C2=O [YM155] + C[C@@H](Oc1cc(-c2cnn(C3CCNCC3)c2)cnc1N)c1c(Cl)ccc(F)c1Cl [Crizotinib] (partner 1 µM)
Summary of the method: as §1

Quizartinib + Olaparib = compound: CC(C)(C)c1cc(NC(=O)Nc2ccc(-c3cn4c(n3)sc3cc(OCCN5CCOCC5)ccc34)cc2)no1 [Quizartinib] + O=C(c1cc(Cc2n[nH]c(=O)c3ccccc23)ccc1F)N1CCN(C(=O)C2CC2)CC1 [Olaparib] (partner 8 µM)
Summary of the method: as §1

| Cell Line | relative viability (YM155 + Foretinib; first compound 0.002 µM) | relative viability (YM155 + Foretinib; first compound 0.006325 µM) | relative viability (YM155 + Foretinib; first compound 0.02 µM) | relative viability (YM155 + Foretinib; first compound 0.06325 µM) | relative viability (Quizartinib + AZD7762; first compound 0.001 µM) | relative viability (Quizartinib + AZD7762; first compound 0.003162 µM) | relative viability (Quizartinib + AZD7762; first compound 0.01 µM) | relative viability (Quizartinib + AZD7762; first compound 0.03162 µM) | relative viability (Quizartinib + AZD7762; first compound 0.1 µM) | relative viability (YM155 + Crizotinib; first compound 0.002 µM) | relative viability (YM155 + Crizotinib; first compound 0.006325 µM) | relative viability (YM155 + Crizotinib; first compound 0.02 µM) | relative viability (YM155 + Crizotinib; first compound 0.06325 µM) | relative viability (Quizartinib + Olaparib; first compound 0.001 µM) | relative viability (Quizartinib + Olaparib; first compound 0.003162 µM) | relative viability (Quizartinib + Olaparib; first compound 0.01 µM) | relative viability (Quizartinib + Olaparib; first compound 0.03162 µM) | relative viability (Quizartinib + Olaparib; first compound 0.1 µM) |
| --- | --- | --- | --- | --- | --- | --- | --- | --- | --- | --- | --- | --- | --- | --- | --- | --- | --- | --- |
| NCI-H650 | 0.985 | 0.932 | 0.988 | 1.06 | 0.858 | 0.785 | 1.25 | 0.856 | 1.13 | 0.835 | 0.655 | 0.747 | 0.52 | 0.373 | 0.334 | 0.44 | 0.4 | 0.474 |
| NCI-H727 | 0.951 | 0.902 | 1.14 | 1.03 | 0.667 | 0.545 | 0.564 | 0.457 | 0.759 | 0.828 | 0.821 | 0.868 | 0.738 | 0.66 | 0.678 | 0.843 | 0.708 | 0.769 |
| NCI-H838 | 1.04 | 1.02 | 1.09 | 0.479 | 0.769 | 0.925 | 1.04 | 0.859 | 0.902 | 0.825 | 0.909 | 0.911 | 0.297 | 0.641 | 0.683 | 0.77 | 0.678 | 0.361 |
| NCI-H1355 | 0.932 | 1.02 | 1.06 | 0.964 | 0.715 | 0.828 | 0.622 | 0.835 | 0.736 | 0.988 | 1.11 | 1.03 | 1.01 | 0.659 | 0.737 | 0.761 | 0.748 | 0.679 |
| NCI-H1437 | 1.21 | 1.24 | 1.26 | 0.984 | 0.944 | 1.05 | 1.17 | 1.04 | 0.943 | 0.878 | 0.9 | 0.902 | 0.681 | 0.613 | 0.587 | 0.627 | 0.584 | 0.468 |
| NCI-H1651 | 0.864 | 0.785 | 0.84 | 0.603 | 0.473 | 0.346 | 0.508 | 0.416 | 0.466 | 0.956 | 0.806 | 0.876 | 0.894 | 0.163 | 0.174 | 0.192 | 0.186 | 0.177 |
| NCI-H1666 | 0.917 | 0.996 | 0.988 | 0.942 | 0.851 | 0.803 | 0.888 | 0.8 | 0.99 | 1.05 | – | 1.01 | 0.879 | 0.704 | 0.713 | 0.662 | 0.678 | 0.853 |
| NCI-H1703 | 0.309 | 0.355 | 0.381 | 0.276 | 0.155 | 0.143 | – | – | 0.134 | 0.612 | 0.13 | 0.459 | 0.175 | 0.488 | 0.306 | 0.2 | 0.166 | 0.307 |
| NCI-H1734 | 0.853 | 0.723 | 0.914 | 0.989 | 0.736 | 0.54 | 0.603 | 0.522 | 0.628 | 0.646 | 0.662 | 0.766 | 0.675 | 0.587 | 0.557 | 0.625 | 0.605 | 0.642 |
